This is an account of results in patent US10996215B2, “Methods for determining drug efficacy for the treatment of diffuse large B-cell lymphoma, multiple myeloma, and myeloid cancers” (CELGENE CORPORATION, priority 2013, dated 2021).

SMILES strings stand for the structures. Residues, ends and D or L forms follow the SMILES beside them. *: point of attachment. Cbz = O=C(OCc1ccccc1)*

In one experiment the test system is IFN pathway. As to the kind of experiment: effect on IFN pathway (FIG. 13). Format: cell-based.
A further experiment concerns ZFP91, Aiolos. Description: Western blot of ZFP91 and Aiolos in OCI-LY10 cells. Format: cell-based. Conditions: for levels of ZFP91 and Aiolos: 6 hrs, 100 mM thalidomide, 10 mM lenalidomide, 1 mM pomalidomide, 1 μM or 10 μM Compound A, 100 nM Compound B, FIG. 17A. The text has this:
Cells were harvested with RIPA buffer, and proteins from cell lysates were separated by 10% sodium dodecyl sulfate polyacrylamide (SDS-PAGE) gel electrophoresis (Bio-Rad), and transferred to PVDF membranes (Invitrogen). Immunoblots were probed with antibodies recognizing Aiolos (9-9-7; Celgene), CK1α(Abcam), GSPT1 (Sigma), ZFP91 (LSBio) and β-actin (Li-Cor). Signals were detected with a Li-Cor Odyssey imager.
Immunoblots were probed with antibodies recognizing Aiolos (9-9-7; Celgene), GSPT1 (Sigma), ZFP91 (LSBio) and β-actin (Li-Cor). Signals were detected with a Li-Cor Odyssey imager.
OCI-LY10 cells treated with DMSO or various drugs for 6 hrs. Cells were harvested with RIPA buffer and proteins from cell lysates were separated by 10% sodium dodecyl sulfate polyacrylamide (SDS-PAGE) gel electrophoresis (Bio-Rad), and transferred to PVDF membranes (Invitrogen). Immunoblots were probed with antibodies recognizing: Aiolos (9-9-7; Celgene), CK1α(Abcam), GSPT1 (Sigma), ZFP91 (LSBio) and β-actin (Li-Cor). Signals were detected with a Li-Cor Odyssey imager.
OCI-LY10 cells were then treated with DMSO or various drugs for 6 hrs. […] Cells were harvested with RIPA buffer and Proteins from cell lysates were separated by 10% sodium dodecyl sulfate polyacrylamide (SDS-PAGE) gel electrophoresis (Bio-Rad), and transferred to PVDF membranes (Invitrogen). Immunoblots were probed with antibodies recognizing: Aiolos (9-9-7; Celgene), ZFP91 (LSBio), ZNF198 (LSBio) and β-actin (Li-Cor). Signals were detected with a Li-Cor™ Odyssey imager.
OCI-LY10 cells stably transduced with shCRBN 11 were induced for 48 hrs with either 0 or 10 ng/ml of doxycycline. […] Where MLN4924 treatments were present, MLN4924 was pre-incubated for 1 hr prior to drug treatment. Cells were harvested with RIPA buffer and Proteins from cell lysates were separated by 10% sodium dodecyl sulfate polyacrylamide (SDS-PAGE) gel electrophoresis (Bio-Rad), and transferred to PVDF membranes (Invitrogen). Immunoblots were probed with antibodies recognizing: CRBN-65, Aiolos (9-9-7; Celgene), Ikaros (Millipore), ZFP91 (LSBio) and β-actin (Li-Cor). Signals were detected with a Li-Cor Odyssey imager.
Background: In western blotting, separated proteins are transferred to a membrane and probed.

Experiment [1] deals with Aiolos, Ikaros, ZFP91. As to the kind of experiment: Western blot in myeloma, lymphoma and primary B cells. In kind it is cell-based. Conditions: U266, DF15, RPMI8226, OCI-LY10, WSU-DLCL2, WSU-DLCL2 Compound A resistant, primary B cells; 8 hours. As for the experimental part:
Multiple myeloma cells (U266, DF15, RPMI8226), diffuse large B cell lymphoma cells (OCI-LY10, WSU-DLCL2, WSU-DLCL2 Compound A resistant), and primary B cells were treated with DMSO, […] or […] for 8 hours. Cells were harvested and were treated in cell lysis buffer to generate cell lysates. Proteins from cell lysate were separated by gel electrophoresis (10% SDS-PAGE) and transferred to nitrocellulose membranes. Immunoblots were then probed with antibodies recognizing Aiolos, CRBN, Ikaros, ZFP91 (LSBio), IRF4, IRF7, Myc, and β-actin (Li-Cor).

For experiment [2], the system named is Aiolos, Ikaros, ZFP91. As to the kind of experiment: CRBN dependence of ZFP91 reduction in U266 cells, Western blot. In kind it is cell-based. Conditions: for destruction of Aiolos, Ikaros, and ZFP91 (CRBN dependent pathway): 6 hour; for compound-induced reduction of Aiolos, Ikaros, and ZFP91 after inhibitor pretreatment: 10 mM MLN4924 or MG132 for 1 hr, then compounds 6 hr. The protocol:
U266 cells were transduced with inducible shRNA constructs targeting CRBN or targeting luciferase as control. Cells were grown in the presence or in the absence of 10 ng/ml Doxycycline, and in the presence or in the absence of 1 μM pomalidomide. Cells were harvested and were treated in cell lysis buffer to generate cell lysates. Proteins from cell lysate were separated by gel electrophoresis and transferred to nitrocellulose membranes. Immunoblots were then probed with antibodies recognizing Aiolos, CRBN, Ikaros, ZFP91, IRF4, IFIT1, IFIT3, P-STAT1, and β-actin (Li-Cor).
Cells were harvested, and lysates were run on 10% SDS-PAGE and immunoblotted with the appropriate antibodies.
MG132 activates c-Jun N-terminal kinase (JNK1), which initiates apoptosis. […] MLN4924 is a NAE1 inhibitor that blocks the activity of Cullin Ring Ligases (CRLs), such as CRL4^CRBN. […] Cells were harvested and lysates were run on 10% SDS-PAGE, transferred to nitrocellulose and immunoblotted with the corresponding antibodies.

For a further experiment, the system named is CSNK1A1 (CK1α), Ikaros. Description: MG-132, MLN-4924 or Compound A pre-treatment, Western analysis in HNT-34 cells. In kind it is cell-based. Conditions: for LEN-mediated CK1α reduction after inhibitor pretreatment: FIG. 27B.
In a further experiment the test system is NF-κB activation. Conditions: cited from earlier work.
The subject of experiment [3] is TMD8 (ABC) or Karpas 422 (GCB) cells. As to the kind of experiment: competition with lenalidomide for CRBN, 3H-thymidine proliferation. Conditions: TMD8 or Karpas 422; co-treatment with 10 μM lenalidomide; competition of binding to the CRBN complex. In kind it is cell-based.

Take `Nc1cccc2c1C(=O)N(C1CCC(=O)NC1=O)C2=O` (stereo not shown) [pomalidomide]: the “IFIT1, IFIT3, DDX58, XAF1, IFIH1, and OAS3 protein expression” value with IFN pathway (FIG. 13A) is “upregulates”. For the same compound, the “DDX58, IFI27, IFIT1, IFIT3, DDX58, and XAF1 gene expression” value in the experiment with IFN pathway (FIG. 13B) was “upregulates”. In addition, in the experiment with IFN pathway (FIG. 13C), the “ISG15 and OAS3 gene expression” value is “upregulates”. Moreover, in the experiment with IFN pathway (FIG. 13E), the IRF changes result is “induces”. For the same compound, in the experiment on IFN pathway (FIG. 13F), the “IFIT1 and IFIT3 protein expression” value was “upregulates”; the IKKE protein level entry was “reduces”; the “TBK1 phosphorylation (TBK1-PO4)” value is recorded as “upregulates”. In addition, the “levels of STAT or phosphorylated STAT” value with IFN pathway (FIG. 13G) was “induces changes”. Further, in the experiment with ZFP91, Aiolos (OCI-LY10), the “levels of ZFP91 and Aiolos” value is reported as “reduced”. Further, the “levels of Aiolos, Ikaros, and ZFP91” value in the experiment on Aiolos, Ikaros, ZFP91 [1] is given as “reduced”. In addition, in the experiment with Aiolos, Ikaros, ZFP91 [2] (1 μM pomalidomide, 10 ng/ml Doxycycline), the “pomalidomide induced reductions of Aiolos, Ikaros, and ZFP91 when CRBN knocked down by shRNA” value was “blocked”. In addition, the “destruction of Aiolos, Ikaros, and ZFP91 (CRBN dependent pathway)” value in the experiment on Aiolos, Ikaros, ZFP91 [2] is “induced”.

As for `O=C1CCC(N2Cc3c(OCc4ccc(CN5CCOCC5)cc4)cccc3C2=O)C(=O)N1` (stereo not shown) [Compound B, 3-[4-(4-Morpholin-4-ylmethyl-benzyloxy)-1-oxo-1,3-dihydro-isoindol-2-yl]-piperidine-2,6-dione], in the experiment on ZFP91, Aiolos (OCI-LY10), the “levels of ZFP91 and Aiolos” value is “reduced”.

Consider `CC(C)C[C@@H](C=O)NC(=O)[C@H](CC(C)C)NC(=O)[C@H](CC(C)C)NC(=O)OCc1ccccc1` [MG132] (Cbz-Leu-Leu-Leu-aldehyde), for which the “compound-induced reduction of Aiolos, Ikaros, and ZFP91 after inhibitor pretreatment” value with Aiolos, Ikaros, ZFP91 [2] is “blocked”. Further, the “CSNK1A1 protein levels in the presence of lenalidomide” value in the experiment on CSNK1A1 (CK1α), Ikaros (3 μM or 10 μM MG-132 pre-treatment 30 min) is listed as “stabilized”. Besides, the “LEN-mediated CK1α reduction after inhibitor pretreatment” value in the experiment with CSNK1A1 (CK1α), Ikaros was “abrogated”. In the experiment with NF-κB activation, the IC50 (usually the concentration that gives 50% inhibition) is 3 µM.

For `NS(=O)(=O)OC[C@@H]1C[C@@H](n2ccc3c(N[C@H]4CCc5ccccc54)ncnc32)C[C@@H]1O` [MLN4924], the “level of both Aiolos and ZFP91 in drug-treated cells after MLN-4924 pre-treatment” value is listed as “restored” in the experiment with ZFP91, Aiolos (OCI-LY10, 10 μM MLN-4924 1 hour prior to drug, FIG. 17C) and “restored” with ZFP91, Aiolos (OCI-LY10 shCRBN 11, lenalidomide or Compound A 6 hours, MLN4924 1 hr pre-incubation, FIG. 17D). In the experiment with ZFP91, Aiolos (OCI-LY10, 10 μM MLN-4924 pretreatment 1 hour, FIG. 14B), the “Aiolos and ZFP91 degradation in response to Compound A” value is recorded as “blocked”. For the same compound, the “compound-induced reduction of Aiolos, Ikaros, and ZFP91 after inhibitor pretreatment” value in the experiment on Aiolos, Ikaros, ZFP91 [2] is “blocked”. Further, the “LEN-mediated CK1α reduction after inhibitor pretreatment” value with CSNK1A1 (CK1α), Ikaros is reported as “abrogated”.

As to `Cc1ccc(NC(=O)NCc2ccc3c(c2)CN(C2CCC(=O)NC2=O)C3=O)cc1Cl` (stereo not shown) [Compound C, 1-(3-chloro-4-methylphenyl)-3-((2-(2,6-dioxopiperidin-3-yl)-1-oxoisoindolin-5-yl)methyl)urea], in experiment [3], the “anti-proliferative effects on co-treatment with lenalidomide” value is recorded as “blocks anti-proliferative effects of Compound C”.

For the compound `O=C1CCC(N2C(=O)c3ccccc3C2=O)C(=O)N1` (stereo not shown) [thalidomide], the “levels of ZFP91 and Aiolos” value in the experiment with ZFP91, Aiolos (OCI-LY10) is recorded as “reduced”. Also, the “destruction of Aiolos, Ikaros, and ZFP91 (CRBN dependent pathway)” value in the experiment with Aiolos, Ikaros, ZFP91 [2] is “induced”.
